Experimental data: patent publication US9908826B2, “Synthetic method” (University Court of the University of St. Andrews, priority 2014, dated 2018)
One block for each molecule: values may come before it.

Experiments:
[1] = tested on: male Japanese Medaka fish; conditions: post-hatching stages of development, references 12, 13, 28; cited from earlier work
[2] = target: T1, human oestrogen receptor (Homo sapiens, UniProt P03372); conditions: studied before, reference 13; cited from earlier work
T1 construct: expressed in transfected cells; host or cells: recombinant yeast (hER yeast strain developed by Glaxo Welcome)
T1 sequence (P03372 1-595): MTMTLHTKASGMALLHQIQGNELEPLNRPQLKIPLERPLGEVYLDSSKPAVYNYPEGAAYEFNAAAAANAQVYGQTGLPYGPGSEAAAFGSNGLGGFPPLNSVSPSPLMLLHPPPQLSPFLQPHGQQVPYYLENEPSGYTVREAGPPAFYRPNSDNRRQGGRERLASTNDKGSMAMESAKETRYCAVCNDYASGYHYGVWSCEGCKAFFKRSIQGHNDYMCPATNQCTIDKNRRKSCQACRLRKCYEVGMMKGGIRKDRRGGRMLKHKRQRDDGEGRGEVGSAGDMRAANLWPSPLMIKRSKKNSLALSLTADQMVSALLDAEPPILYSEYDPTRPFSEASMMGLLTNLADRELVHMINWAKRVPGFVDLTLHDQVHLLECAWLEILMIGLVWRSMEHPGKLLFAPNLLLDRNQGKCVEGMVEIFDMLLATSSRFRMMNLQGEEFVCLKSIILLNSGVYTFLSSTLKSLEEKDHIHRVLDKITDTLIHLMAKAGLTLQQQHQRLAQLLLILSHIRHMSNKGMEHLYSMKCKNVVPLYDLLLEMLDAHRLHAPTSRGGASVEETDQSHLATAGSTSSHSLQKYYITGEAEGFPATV

[3] = target: T1, human oestrogen receptor; assay: recombinant yeast oestrogen screen (YES) assay; assay type: cell-based
From the text: In order to test our hypothesis that 3-nonylphenol might show less oestrogenicity than either the linear or the 4-nonylphenol, we have carried out a yeast oestrogen screen (YES) assay which is specific for oestradiol mimics.
The recombinant hER yeast strain was developed by Glaxo Welcome and details of the yeast oestrogen screen have been described previously (Routledge and Sumpter, 1996).
In brief, yeast cells were transfected with the human oestrogen receptor gene together with expression plasmids; the oestrogen response element and the lac-Z gene encoding the enzyme β-galactosidase. The yeast cells were incubated in medium containing the test chemical and the chromogenic substrate, […] (CPRG), and active ligands induced β-gal expression. The β-galactosidase secreted into the medium causes the yellow CPGR to change into a red product, and this is measurable by absorbance.
The medium components were prepared and the standard assay procedure was followed.^32 Chemicals were serially diluted in ethanol and 10 μl volumes were transferred to 96-well flat-bottom plates where the ethanol was allowed to evaporate to dryness. Then, 200 μl medium containing CPRG and yeast (final cell number of 5×10^5 cells/ml) was added to each well. Included with every assay was a negative control, ethanol, and a positive control, 17 β-oestradiol (stock solution of 17 β-oestradiol (2×10^−7 mol dm^−3) serially diluted in ethanol to achieve final concentrations of 1×10^−8 mol dm^−3 to 4.88×10^−12 mol dm^−3 in the wells).
The absorbance values were corrected for cell density using the following equation: Corrected value=chemical540nm−(chemical620nm−ethanol blank620nm).
All chemicals were tested in duplicate and each YES was carried out at least three times.

[4] = YES assay, initial 3-NP sample (Pd/C, contains small amounts of ring hydrogenated product)
[5] = second sample, [RhCl(PPh3)3] hydrogenation, no ring hydrogenation products

Compound: CCCCCCCCCc1ccc(O)cc1 [4-NP, 4-nonylphenol]
- endocrine disrupting effect [1]: induce testes-ova

Compound: CCCCCCCCCc1ccc(O)cc1 [4-n-NP, 4-nonylphenol]
- oestrogenicity compared with commercial 4-nonylphenol with mixed alkyl chains [2]: lower oestrogenicity

- oestrogenicity relative to 17 β-oestradiol (times as oestrogenic) ([3]; YES assay (conclusion)): ~10^−6 times
- oestrogenic response in the YES assay (in words) ([3]; YES assay, FIG. 1 and FIG. 2): full dose response curve
- times less potent in oestrogenicity than the banned substance (4-nonylphenol) ([3]; YES assay, 3-nonylphenol prepared by ethenolysis of cardanol (conclusion)): at least 150 times
- potency, fold less than 4-NP (mixed isomers) [3, 4]: ~300 fold
- potency, fold less than 17 β-oestradiol [3, 4]: approximately 1.5×10^6 fold
- reduction in oestrogenic activity on moving the linear alkyl group from the 4- to the 3-position (vs 4-n-NP) ([3]; YES assay, tested 1×10^−3 to 5×10^−7 mol dm^−3, initial sample (Pd/C hydrogenation)): 10 fold
- orders of magnitude less oestrogenic than 4-nonylphenol ([3]; oestrogenicity studies, summary statement): 2 orders of magnitude
- increase in oestrogenicity of second sample versus initial sample [3, 5]: 2 fold
- oestrogenicity, times lower than that of 4-NP mixed isomers [3, 5]: 150 times
Compound: CCCCCCCCCc1cccc(O)c1 [3-NP, 3-Nonylphenol]
